Experimental findings from patent publication US11912668B2, “GCN2 and perk kinase inhibitors and methods of use thereof” (Deciphera Pharmaceuticals, LLC, priority 2020, dated 2024) are described below.

For one test, the system named is CCRF-CEM leukemia cells. Briefly: CCRF-CEM ASNase cell proliferation assay, phenotypic assay for cellular inhibition of GCN2. The test is classed as cell-based. Conditions: Homo sapiens; ASNase treated CCRF-CEM cells, 1 mU/mL ASNase, 72 h. Put shortly: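 Cells were seeded at ten thousand per well in RPMI-1640 with 10% heat-inactivated FBS and treated in triplicate with serially diluted compound plus 1 mU/mL ASNase for 72 h at 37 °C, 5% CO2. Resazurin was then added for 6 h, with fluorescence read at ex 540/em 600 nm to derive IC50 values.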

In test [1] the test system is ATF4 in H929 multiple myeloma cells. Kind of test: H929 ATF4 ELISA assay (stimulation of cellular ATF4). The test is classed as cell-based. The settings on record: 4 h, no thapsigargin. The protocol:
H929 multiple myeloma cells (catalog #CRL-9068) were obtained from the American Type Culture Collection (ATTC, Manassas, VA). Briefly, cells were grown in RPMI-1640 medium supplemented with 20% heat-inactivated fetal bovine serum (catalog #A3840002, ThermoFisher Scientific, Waltham, MA), 1% Penicillin/Streptomycin/L-Glutamine (catalog #10378016, ThermoFisher Scientific, Waltham, MA), and 0.05 mM 2-mercaptoethanol (catalog #21985-023, ThermoFisher Scientific, Waltham, MA) at 37° C., 5% CO2, and 95% humidity. Cells were expanded until reaching one million five hundred thousand cells per mL at which time they were subcultured or harvested for assay use. One million five hundred thousand cells per well in 1 mL complete growth medium were dispensed into 12-well plates and incubated overnight. A serial dilution of test compound was added, and cells were incubated at 37° C., 5% CO2, and 95% for four hours. Cells were lysed then ATF4 levels were measured using an ELISA assay (Proteintech, Rosemont, IL). Absorbance is measured at 450 nm and 544 nM using a Synergy2 or equivalent reader (Biotek, Winooski VT). Data were analyzed using PRISM software (Graphpad, San Diego, CA) to calculate fold stimulation of cellular ATF4 relative to vehicle treated control.
(In an ELISA, binding on a coated surface is turned into a signal by an enzyme label.)

The test system of test [2] is phospho-GCN2 (Thr899) in HCT116 colorectal cancer cells. Kind of test: HCT116 amino acid starved (-AA) phospho-GCN2 assay (Western blot). Conditions: Homo sapiens, HCT-116, 4 h, read-out: HCT116-AA pGCN2 Western Blot. The format is cell-based. Put shortly: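 HCT116 cells switched to amino-acid-free EBSS (10% dialyzed FBS, 5.5 mM glucose, vitamins) with serial compound dilutions for 4 h at 37° C. Lysates Western blotted for phospho-GCN2 (Thr899), total GCN2, ATF4 and beta-actin; IC50 values derived from quantified bands.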
(In western blotting, separated proteins are transferred to a membrane and probed.)

Another test concerns the target GCN2 kinase (Homo sapiens (Human), UniProt Q9P2K8). Briefly: Biochemical assay for GCN2 (TR-FRET kinase activity assay). The settings on record: 1 mM ATP, 3-hour incubation. The method, boiled down:
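TR-FRET assay with 2 nM GCN2, 130 nM GFP-eIF2α substrate, 0.2 mg/mL E. coli tRNA and 1 mM ATP; compounds (0.5% DMSO) reacted 3 h. Stopped with 20 mM EDTA plus 2 nM Tb-anti-peIF2α (pSer52), 60 min RT; 520/490 ratio converted to % inhibition, IC50 from four-parameter fit.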

Where only a bound is given, the exact number is not on record here.

GCN2 kinase, sequence (Q9P2K8 whole entry): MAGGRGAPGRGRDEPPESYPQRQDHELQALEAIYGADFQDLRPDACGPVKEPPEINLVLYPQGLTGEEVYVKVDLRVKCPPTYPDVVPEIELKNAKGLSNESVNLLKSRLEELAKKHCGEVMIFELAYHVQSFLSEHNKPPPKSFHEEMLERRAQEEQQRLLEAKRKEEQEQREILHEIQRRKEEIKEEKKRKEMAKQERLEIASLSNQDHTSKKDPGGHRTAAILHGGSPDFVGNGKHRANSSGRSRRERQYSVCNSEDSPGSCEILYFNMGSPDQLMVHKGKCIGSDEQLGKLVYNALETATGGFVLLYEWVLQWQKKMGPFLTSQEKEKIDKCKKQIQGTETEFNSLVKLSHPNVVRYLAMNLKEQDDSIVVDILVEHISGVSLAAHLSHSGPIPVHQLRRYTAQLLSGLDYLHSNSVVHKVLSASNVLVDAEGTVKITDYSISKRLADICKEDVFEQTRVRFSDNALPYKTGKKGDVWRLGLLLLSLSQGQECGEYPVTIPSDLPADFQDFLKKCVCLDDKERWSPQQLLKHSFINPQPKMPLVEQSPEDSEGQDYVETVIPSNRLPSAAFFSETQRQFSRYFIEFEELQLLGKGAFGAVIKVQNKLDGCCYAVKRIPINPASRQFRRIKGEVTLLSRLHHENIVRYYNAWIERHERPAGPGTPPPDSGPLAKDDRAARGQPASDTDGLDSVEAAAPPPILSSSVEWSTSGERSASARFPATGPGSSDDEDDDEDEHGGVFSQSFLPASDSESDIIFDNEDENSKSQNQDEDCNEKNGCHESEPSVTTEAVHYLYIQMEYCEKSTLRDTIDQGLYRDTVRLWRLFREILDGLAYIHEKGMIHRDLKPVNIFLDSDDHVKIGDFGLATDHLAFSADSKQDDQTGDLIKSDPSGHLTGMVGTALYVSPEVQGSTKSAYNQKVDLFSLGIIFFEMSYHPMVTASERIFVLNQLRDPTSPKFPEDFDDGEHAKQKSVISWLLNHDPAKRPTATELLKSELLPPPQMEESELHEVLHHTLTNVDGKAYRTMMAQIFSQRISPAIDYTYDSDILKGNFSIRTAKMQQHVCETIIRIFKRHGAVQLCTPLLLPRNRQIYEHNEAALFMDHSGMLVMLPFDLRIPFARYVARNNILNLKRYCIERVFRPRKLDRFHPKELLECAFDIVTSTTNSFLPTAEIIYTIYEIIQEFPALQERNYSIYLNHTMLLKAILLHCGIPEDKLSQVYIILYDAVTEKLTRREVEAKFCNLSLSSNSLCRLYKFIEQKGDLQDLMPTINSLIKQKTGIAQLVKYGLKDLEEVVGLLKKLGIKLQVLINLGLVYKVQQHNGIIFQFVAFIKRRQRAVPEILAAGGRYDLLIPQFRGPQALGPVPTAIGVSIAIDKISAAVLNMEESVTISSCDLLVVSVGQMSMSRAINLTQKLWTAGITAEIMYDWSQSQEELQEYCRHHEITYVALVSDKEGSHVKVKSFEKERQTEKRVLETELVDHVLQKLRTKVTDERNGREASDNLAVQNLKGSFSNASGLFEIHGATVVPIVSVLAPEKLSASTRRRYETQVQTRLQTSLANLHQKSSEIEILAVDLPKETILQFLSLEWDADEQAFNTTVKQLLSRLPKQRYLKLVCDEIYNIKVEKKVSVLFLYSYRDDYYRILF

Turning to `CNc1ncc2cc(-c3cccc(NS(=O)(=O)c4cc(Cl)cnc4OC)c3F)c(NC)nc2n1` [Compound 16], the IC50 (in the test on CCRF-CEM leukemia cells; in test [2]; on GCN2 kinase) was no more than 100 nM throughout. Moreover, the “H929 NS ATF4 ELISA (fold stimulation of ATF4 relative to vehicle)” value in test [1] is “+++ (“+++” refers to an ATF4 stim greater than 10 fold and less than or equal to 20 fold)”.
